Measured values from patent publication US20250223268A1, “4-Methylsulfonylbenzamide Compound, Preparation Method, Herbicidal Composition And Use” (Jiangsu Flag Chemical Industry Co., Ltd., priority 2022, published 2025).

Legend:
Format in all cases: in vivo
Digitaria sanguinalis = assay: Greenhouse herbicidal activity assay, post-emergence; conditions: Post-emergence test, rate 150 g a.i./hm^2; grade by fresh weight inhibition rate
In short: (§1)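 Scores reflect fresh weight inhibition assessed 14-21 days after treatment, with grade A meaning ≥80% to 100% and grade E meaning <20%. Plants, raised in nutrient-soil pots inside a growth chamber, were sprayed on the foliage at the 3-6 leaf stage.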

Leptochloa chinensis [1] = assay: as above; conditions: Post-emergence test, rate 150 g a.i./hm^2; grade by fresh weight inhibition rate
In short: as §1

Echinochloa crusgalli [2] = assay: as above; conditions: Post-emergence test, rate 150 g a.i./hm^2; grade by fresh weight inhibition rate
In short: as §1

Cyperus iria = assay: as above; conditions: Post-emergence test, rate 150 g a.i./hm^2; grade by fresh weight inhibition rate
In short: as §1

Eclipta prostrata = assay: as above; conditions: Post-emergence test, rate 150 g a.i./hm^2; grade by fresh weight inhibition rate
In short: as §1

Leptochloa chinensis [3] = assay: Greenhouse herbicidal activity and crop safety comparison (Test Example 2); conditions: Rate 150 g/ha
In short: (§2)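 Fresh weight inhibition, banded into grades A to E (E <20%), was rated 14-21 days after foliar spraying of 3-6 leaf plants, or 14-30 days after a soil spray applied 24 h post-sowing.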

[4] = system: Oryza sativa subsp. japonica; assay: as above; conditions: Rate 150 g/ha
In short: as §2

[5] = system: Oryza sativa subsp. indica; assay: as above; conditions: Rate 150 g/ha
In short: as §2

Echinochloa crusgalli [6] = assay: as above; conditions: Rate 150 g/ha
In short: as §2

| SMILES | Control efficacy grade, Digitaria sanguinalis (Digitaria sanguinalis) | Control efficacy grade, Leptochloa chinensis (Leptochloa chinensis [1]) | Control efficacy grade, Echinochloa crusgalli (Echinochloa crusgalli [2]) | Control efficacy grade, Cyperus iria (Cyperus iria) | Control efficacy grade, Eclipta prostrata (Eclipta prostrata) | Leptochloa chinensis, control efficacy grading (fresh weight inhibition rate) (Leptochloa chinensis [3]) | Oryza sativa subsp. japonica, grading of fresh weight inhibition rate (crop safety) [4] | Oryza sativa subsp. indica, grading of fresh weight inhibition rate (crop safety) [5] | Echinochloa crusgalli, control efficacy grading (fresh weight inhibition rate) (Echinochloa crusgalli [6]) |
| --- | --- | --- | --- | --- | --- | --- | --- | --- | --- |
| Cc1nnc(NC(=O)c2ccc(S(C)(=O)=O)c(S(=O)(=O)C3CCC3)c2Cl)o1 [Compound 3-86] | A (Fresh weight inhibition rate≥80% to 100%) | A (Fresh weight inhibition rate≥80% to 100%) | A (Fresh weight inhibition rate≥80% to 100%) | A (Fresh weight inhibition rate≥80% to 100%) | A (Fresh weight inhibition rate≥80% to 100%) | A (Fresh weight inhibition rate≥80% to 100%) | E (Fresh weight inhibition rate<20%) | E (Fresh weight inhibition rate<20%) | A (Fresh weight inhibition rate≥80% to 100%) |
| CS(=O)(=O)c1ccc(C(=O)Nc2nnco2)c(Cl)c1S(=O)(=O)CC(F)(F)F [Compound 3-327] | B (Fresh weight inhibition rate≥260% to <80%) | A (Fresh weight inhibition rate≥80% to 100%) | A (Fresh weight inhibition rate≥80% to 100%) | A (Fresh weight inhibition rate≥80% to 100%) | A (Fresh weight inhibition rate≥80% to 100%) | A (Fresh weight inhibition rate≥80% to 100%) | E (Fresh weight inhibition rate<20%) | E (Fresh weight inhibition rate<20%) | A (Fresh weight inhibition rate≥80% to 100%) |
| Cc1nnc(NC(=O)c2ccc(S(C)(=O)=O)c(S(=O)(=O)Cc3ccccc3)c2Cl)o1 [Compound 3-71] |  | A (Fresh weight inhibition rate≥80% to 100%) |  | A (Fresh weight inhibition rate≥80% to 100%) | A (Fresh weight inhibition rate≥80% to 100%) | A (Fresh weight inhibition rate≥80% to 100%) | E (Fresh weight inhibition rate<20%) | E (Fresh weight inhibition rate<20%) | C (Fresh weight inhibition rate≥40% to <60%) |
| CC(C)c1nnc(NC(=O)c2ccc(S(C)(=O)=O)c(S(=O)(=O)C3CCC3)c2Cl)o1 [Compound 3-544] |  | A (Fresh weight inhibition rate≥80% to 100%) | B (Fresh weight inhibition rate≥260% to <80%) | A (Fresh weight inhibition rate≥80% to 100%) | A (Fresh weight inhibition rate≥80% to 100%) | A (Fresh weight inhibition rate≥80% to 100%) | E (Fresh weight inhibition rate<20%) | E (Fresh weight inhibition rate<20%) |  |
| CS(=O)(=O)c1ccc(C(=O)Nc2nnc(C3CC3)o2)c(Cl)c1S(=O)(=O)C1CCCC1 [Compound 3-665] |  | A (Fresh weight inhibition rate≥80% to 100%) |  | B (Fresh weight inhibition rate≥260% to <80%) | A (Fresh weight inhibition rate≥80% to 100%) | A (Fresh weight inhibition rate≥80% to 100%) | E (Fresh weight inhibition rate<20%) | E (Fresh weight inhibition rate<20%) |  |
| CCc1nnc(NC(=O)c2ccc(S(C)(=O)=O)c(S(=O)(=O)CC(F)(F)F)c2Cl)o1 [Compound 3-443] |  | A (Fresh weight inhibition rate≥80% to 100%) |  | A (Fresh weight inhibition rate≥80% to 100%) | A (Fresh weight inhibition rate≥80% to 100%) | A (Fresh weight inhibition rate≥80% to 100%) | E (Fresh weight inhibition rate<20%) | E (Fresh weight inhibition rate<20%) | C (Fresh weight inhibition rate≥40% to <60%) |
| C#CCS(=O)(=O)c1c(S(C)(=O)=O)ccc(C(=O)Nc2nnc(C)o2)c1Cl [Compound 3-151] | B (Fresh weight inhibition rate≥260% to <80%) | A (Fresh weight inhibition rate≥80% to 100%) | B (Fresh weight inhibition rate≥260% to <80%) | A (Fresh weight inhibition rate≥80% to 100%) | A (Fresh weight inhibition rate≥80% to 100%) | A (Fresh weight inhibition rate≥80% to 100%) | E (Fresh weight inhibition rate<20%) | E (Fresh weight inhibition rate<20%) |  |
| CC(C)c1nnc(NC(=O)c2ccc(S(C)(=O)=O)c(S(=O)(=O)C3CC3)c2Cl)o1 [Compound 3-539] | B (Fresh weight inhibition rate≥260% to <80%) | A (Fresh weight inhibition rate≥80% to 100%) | B (Fresh weight inhibition rate≥260% to <80%) | B (Fresh weight inhibition rate≥260% to <80%) |  | A (Fresh weight inhibition rate≥80% to 100%) | E (Fresh weight inhibition rate<20%) | E (Fresh weight inhibition rate<20%) |  |
| CS(=O)(=O)c1ccc(C(=O)Nc2nnc(C3CC3)o2)c(Cl)c1S(=O)(=O)CC1CC1 [Compound 3-650] | A (Fresh weight inhibition rate≥80% to 100%) | A (Fresh weight inhibition rate≥80% to 100%) | B (Fresh weight inhibition rate≥260% to <80%) | A (Fresh weight inhibition rate≥80% to 100%) | A (Fresh weight inhibition rate≥80% to 100%) | B (Fresh weight inhibition rate≥260% to <80%) | E (Fresh weight inhibition rate<20%) | E (Fresh weight inhibition rate<20%) |  |
| CS(=O)(=O)c1ccc(C(=O)Nc2nnc(C3CC3)o2)c(Cl)c1S(=O)(=O)C1CCC1 [Compound 3-660] |  | A (Fresh weight inhibition rate≥80% to 100%) |  | A (Fresh weight inhibition rate≥80% to 100%) | A (Fresh weight inhibition rate≥80% to 100%) | A (Fresh weight inhibition rate≥80% to 100%) | E (Fresh weight inhibition rate<20%) | E (Fresh weight inhibition rate<20%) | C (Fresh weight inhibition rate≥40% to <60%) |
| Cc1nnc(NC(=O)c2ccc(S(C)(=O)=O)c(S(=O)(=O)C3CCCCC3)c2Cl)o1 [Compound 3-96] |  | A (Fresh weight inhibition rate≥80% to 100%) |  | A (Fresh weight inhibition rate≥80% to 100%) | A (Fresh weight inhibition rate≥80% to 100%) | A (Fresh weight inhibition rate≥80% to 100%) | E (Fresh weight inhibition rate<20%) | E (Fresh weight inhibition rate<20%) | C (Fresh weight inhibition rate≥40% to <60%) |
| CC(C)c1nnc(NC(=O)c2ccc(S(C)(=O)=O)c(S(=O)(=O)CC3CC3)c2Cl)o1 [Compound 3-534] | B (Fresh weight inhibition rate≥260% to <80%) | B (Fresh weight inhibition rate≥260% to <80%) | B (Fresh weight inhibition rate≥260% to <80%) | A (Fresh weight inhibition rate≥80% to 100%) | A (Fresh weight inhibition rate≥80% to 100%) | A (Fresh weight inhibition rate≥80% to 100%) | E (Fresh weight inhibition rate<20%) | E (Fresh weight inhibition rate<20%) |  |
| Cc1nnc(NC(=O)c2ccc(S(C)(=O)=O)c(S(=O)(=O)CCC#N)c2Cl)o1 [Compound 3-201] |  | A (Fresh weight inhibition rate≥80% to 100%) |  | A (Fresh weight inhibition rate≥80% to 100%) | A (Fresh weight inhibition rate≥80% to 100%) | A (Fresh weight inhibition rate≥80% to 100%) | E (Fresh weight inhibition rate<20%) | E (Fresh weight inhibition rate<20%) | C (Fresh weight inhibition rate≥40% to <60%) |
